# Structures can show the parent of a compound that is named as a salt. Where two headings read alike, the source gives them in different places.
# Experiments:
# [1] = tested on: IL-4 stimulated expression of CD23 in human Ramos B cells (JAK-1 and JAK-3); assay: Assay for Ramos B-Cell Line Stimulated with IL-4 (CD23 upregulation, FACS); assay type: cell-based; conditions: read-out: IC50, Example 41
# Outline: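 Human Ramos B cells (5×10^4 per point, RPMI 5% serum) pre-incubated 1 h at 37 °C with compound or DMSO, then stimulated with IL-4 at 50 units/mL final for 20-24 h. CD23 upregulation measured by anti-CD23-PE staining and flow cytometry; IC50 derived.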
# Primary human T-cells = assay: Primary Human T-Cell Proliferation Assay Stimulated with IL-2 (CellTiter-Glo); assay type: cell-based; conditions: read-out: IC50, Example 42
# From the text: The activity of the active compounds of the invention may further be characterized by assaying the effect of the 2,4-substituted pyrimidinediamine compounds described herein on the proliferative response of primary human T-cells. In this assay, primary human T-cells derived from peripheral blood and pre-activated through stimulation of the T-cell receptor and CD28, proliferate in culture in response to the cytokine Interleukin-2 (IL-2). This proliferative response is dependent on the activation of JAK1 and JAK3 tyrosine kinases, which phosphorylate and activate the transcription factor Stat-5. The primary human T-cells are incubated with the 2,4-substituted pyrimidinediamine compounds in the presence of IL-2 for 72 hours and at the assay endpoint intracellular ATP concentrations are measured to assess cell viability. A reduction in cell proliferation compared to control conditions is indicative of inhibition of the JAK kinase pathway. An exemplary assay of this type is described in greater detail in Example 42
# Primary human T-cells derived from peripheral blood and pre-activated through stimulation of the T-cell receptor and CD28, proliferate in vitro in response to the cytokine Interleukin-2 (IL-2). This proliferative response is dependent on the activation of JAK-1 and JAK-3 tyrosine kinases, which phosphorylate and activate the transcription factor Stat-5.
# Human primary T cells were prepared as follows. Whole blood was obtained from a healthy volunteer, mixed 1:1 with PBS, layered on to Ficoll Hypaque (Amersham Pharmacia Biotech, Piscataway, NJ, Catalog #17-1440-03) in 2:1 blood/PBS:ficoll ratio and centrifuged for 30 min at 4° C. at 1750 rpm. The lymphocytes at the serum: ficoll interface were recovered and washed twice with 5 volumes of PBS. The cells were resuspended in Yssel's medium (Gemini Bio-products, Woodland, CA, Catalog #400-103) containing 40 U/mL recombinant IL2 (R and D Systems, Minneapolis, MN, Catalog #202-IL (20 rig)) and seeded into a flask pre-coated with 1 μg/mL anti-CD3 (BD Pharmingen, San Diego, CA, Catalog #555336) and 5 μg/mL anti-CD28 (Immunotech, Beckman Coulter of Brea CA, Catalog #IM1376). The primary T-cells were stimulated for 3-4 days, then transferred to a fresh flask and maintained in RPMI with 10% FBS and 40 U/mL IL-2.
# Primary T-cells were washed twice with PBS to remove the IL-2 and resuspended in Yssel's medium at 2×10^6 cells/mL. 50 μL of cell suspension containing 80 U/mL IL-2 was added to each well of a flat bottom 96 well black plate. For the unstimulated control, IL-2 was omitted from the last column on the plate. Compounds were serially diluted in dimethyl sulfoxide (DMSO, 99.7% pure, cell culture tested, Sigma-Aldrich, St. Louis, MO, Catalog No. D2650) from 5 mM in 3-fold dilutions, and then diluted 1:250 in Yssel's medium. 50 μL of 2× compound was added per well in duplicate and the cells were allowed to proliferate for 72 hours at 37° C.
# Proliferation was measured using CellTiter-Glo® Luminescent Cell Viability Assay (Promega), which determines the number of viable cells in culture based on quantitation of the ATP present, as an indicator of metabolically active cells. The substrate was thawed and allowed to come to room temperature. After mixing the Cell Titer-Glo reagent and diluent together, 100 μL was added to each well. The plates were mixed on an orbital shaker for two minutes to induce lysis and incubated at room temperature for an additional ten minutes to allow the signal to equilibrate. Detection was performed using a Wallac Victor2 1420 multilabel counter purchased from Perkin Elmer, Shelton, CT The IC50 calculated based on the results of this assay are provided in TABLE XII.
# [2] = Ramos B-cell line stimulated with IL-4, CD23 expression by FACS
# [3] = primary human T-cell proliferation stimulated with IL-2
# [4] = Homo sapiens, Ramos, Ramos B cells stimulated with IL-4, CD23 expression by FACS
# [5] = Homo sapiens, T-cell, primary human T-cells stimulated with IL-2, proliferation
# [6] = Homo sapiens, Ramos, Ramos B-cell line stimulated with IL-4, CD23 expression by FACS
# [7] = Ramos B cells stimulated with IL-4, CD23 expression by FACS
compound,measurement,setting,value
"CCC(=O)NS(=O)(=O)c1cc(Nc2ncc(F)c(Nc3ccc(C=CC#N)c(Cl)c3)n2)ccc1C [III-28, N4-(3-Chloro-4-cyanoethylene-phenyl)-5-fluoro-N2-(4-methyl-3-propionylaminosulfonylphenyl)-2,4-pyrimidinediamine]",IC50,[1]; [2],3750 nM
same,IC50,Primary human T-cells; [3],17400 nM
"NC(=O)CCc1ccc(Nc2nc(Nc3cccc(S(N)(=O)=O)c3)ncc2F)cc1 [III-48, N4-[4-(2-Aminocarboxylethylene)phenyl]-N2-(3-aminosulfonylphenyl)-5-fluoro-2,4-pyrimidinediamine]",IC50,[1]; [2],204 nM
same,IC50,Primary human T-cells; [3],218 nM
"NS(=O)(=O)c1ccc(Nc2ncc(F)c(Nc3ccc(CCCCF)cc3)n2)cc1 [VI-91, N2-(4-Aminosulfonylphenyl)-5-fluoro-N4-[4-(4-fluorobutyl)phenyl]-2,4-pyrimidinediamine]",IC50,[1]; [4],221 nM
same,IC50,Primary human T-cells; [5],1230 nM
"CCN(CC)CCNS(=O)(=O)c1ccc(Nc2ncc(F)c(Nc3ccc(Cn4ccnc4)cc3)n2)cc1 [III-84, N2-[4-(2-N,N-Diethylaminoethyl)aminosulfonylphenyl)-5-fluoro-N4-[4-(1-imidazolylmethyl)phenyl]-2,4-pyrimidinediamine]",IC50,[1]; [2],443 nM
same,IC50,Primary human T-cells; [3],1900 nM
"NS(=O)(=O)c1cccc(Nc2ncc(F)c(Nc3ccc(Cc4ccncc4)cc3)n2)c1 [III-73, N2-(3-Aminosulfonylphenyl)-5-fluoro-N4-[4-(4-pyridylmethyl)phenyl]-2,4-pyrimidinediamine Hydrochloride Salt]",IC50,"[1]; Ramos B-cell line stimulated with IL-4, CD23 expression by FACS, Hydrochloride Salt",131 nM
same,IC50,"Primary human T-cells; primary human T-cell proliferation stimulated with IL-2, Hydrochloride Salt",434 nM
"CN(C)C(=O)OCCc1ccc(Nc2nc(Nc3ccc(Cl)c(S(N)(=O)=O)c3)ncc2F)cc1 [III-58, N2-(3-Aminosulfonyl-4-chlorophenyl)-N4-{4-[2-(dimethylaminocarbonyloxy)ethyl]phenyl}-5-fluoro-2,4-pyrimidinediamine]",IC50,[1]; [6],157 nM
same,IC50,"Primary human T-cells; Homo sapiens, T-cell, primary human T-cell proliferation stimulated with IL-2",1260 nM
"Cc1ccc(Nc2ncc(F)c(Nc3ccc(CCC#N)c(C(F)(F)F)c3)n2)cc1S(N)(=O)=O [III-30, N4-(4-Cyanoethylene-3-trifluoromethylphenyl)-5-fluoro-N2-(4-methyl-3-aminosulfonylphenyl)-2,4-pyrimidinediamine]",IC50,[1]; [2],64.5 nM
same,IC50,Primary human T-cells; [3],319 nM
"NS(=O)(=O)c1ccc(Nc2ncc(F)c(Nc3ccc(-c4ccccn4)c(OCF)c3)n2)cc1 [Compound I-177, N2-(4-Aminosulfonylphenyl)-5-fluoro-N4-[4-(2-pyridinyl)-3-fluoromethyleneoxyphenyl]-2,4-pyrimidinediamine]",IC50,Primary human T-cells; [3],500 nM
"C#CCNS(=O)(=O)c1ccc(Nc2nc(Nc3ccc(S(N)(=O)=O)cc3)ncc2F)cc1 [VI-77, N2-(4-Aminosulfonylphenyl)-5-fluoro-N4-[4-(prop-2-ynylaminosulfonyl)phenyl]-2,4-pyrimidinediamine]",IC50,Primary human T-cells; [5],43300 nM
"NS(=O)(=O)c1cccc(Nc2ncc(F)c(Nc3ccc(OCC(=O)N4CCOCC4)cc3)n2)c1 [Compound I-211, N2-(3-Aminosulfonylphenyl)-5-fluoro-N4-[4-(2-morpholin-4-yl-2-oxo-ethoxy)phenyl]-2,4-pyrimidinediamine]",IC50,[1]; [6],1050 nM
"COC(=O)[C@@H]1C[C@@H](Nc2nc(Nc3ccc(C)c(S(N)(=O)=O)c3)ncc2F)CN1C(=O)CC#N [VII-1, N2-(3-Aminosulfonyl-4-methylphenyl)-N4-[(2S,4R)-1-(2-cyanoacetyl)-2-methoxycarbonylpyrrolidin-4-yl]-5-fluoro-2,4-pyrimidinediamine]",IC50,[1]; [4],6650 nM
"CNS(=O)(=O)c1ccc(Nc2ncc(F)c(Nc3ccc4c(c3)OCCO4)n2)cc1OC [VII-25, N4-(3,4-Ethyenedioxyphenyl)-5-fluoro-N2-[4-(N-methyl)aminosulfonyl-3-methoxyphenyl]-2,4-pyrimidinediamine]",IC50,[1]; [7],217 nM
"COc1cc(Nc2nc(Nc3ccc(S(N)(=O)=O)cc3)ncc2F)ccc1OCC(N)=O [Compound I-103, N4-(4-Aminocarbonylmethoxy-3-methoxyphenyl)-N2-(4-aminosulfonylphenyl)-5-fluoro-2,4-pyrimidinediamine]",IC50,[1]; [6],1250 nM
"NS(=O)(=O)c1ccc(Nc2ncc(F)c(Nc3ccc(CNC(=O)C4CC4)cc3)n2)cc1 [III-41, N2-(4-aminosulfonyl)phenyl-N4-(4-cyclopropylcarbonylaminomethyl)phenyl-5-fluoro-2,4-pyrimidinediamine]",IC50,[1]; [2],1010 nM
"CCN(CC)CCNS(=O)(=O)c1cccc(Nc2ncc(F)c(Nc3ccc(OCc4ccccn4)cc3)n2)c1 [Compound I-166, N2-[3-(2-N,N-Diethylaminoethyl)aminosulfonylphenyl)-5-fluoro-N4-[4-(2-pyridinyl)methyleneoxyphenyl]-2,4-pyrimidinediamine]",IC50,[1]; [2],616 nM
"CCC(=O)NS(=O)(=O)c1cccc(Nc2ncc(F)c(Nc3ccc(OCc4cc(C)on4)cc3)n2)c1 [Compound I-242, 5-Fluoro-N4-[4-(5-methylisoxazol-3-yl)methyleneoxyphenyl]-N2-(3-N-propanamido)sulfonylphenyl)]-2,4-pyrimidinediamine sodium salt]",IC50,"[1]; Ramos B-cell line stimulated with IL-4, CD23 expression by FACS, sodium salt",520 nM
"COc1ccc(N(C)c2nc(Nc3cc(C)c(F)c(S(N)(=O)=O)c3)ncc2F)cc1Cl [VI-20, N2-(3-Aminosulfonyl-4-fluoro-5-methylphenyl)-N4-(3-chloro-4-methoxyphenyl)-5-fluoro-N4-methyl-2,4-pyrimidinediamine]",IC50,[1]; [4],726 nM
"NC(=O)NCc1cccc(Nc2nc(Nc3cccc(S(N)(=O)=O)c3)ncc2F)c1 [III-114, N4-(3-aminocarbonylaminomethyl)phenyl-N2-(3-aminosulfonyl)phenyl-5-fluoro-2,4-pyrimidinediamine]",IC50,[1]; [7],2680 nM
"CCN(CC)CCNS(=O)(=O)c1cccc(Nc2ncc(F)c(Nc3cccc(OCc4cccnc4)c3)n2)c1 [Compound I-187, N2-[3-(2-N,N-Diethylaminoethyl)aminosulfonylphenyl)-5-fluoro-N4-[3-(3-pyridinyl)methyleneoxyphenyl]-2,4-pyrimidinediamine]",IC50,[1]; [2],2910 nM
"Cc1cc(COc2ccc(N(C)c3nc(Nc4ccc(C)c(S(N)(=O)=O)c4)ncc3F)cc2F)no1 [Compound I-226, N2-(3-Aminosulfonyl-4-methylphenyl)-5-fluoro-N4-[3-fluoro-4-(5-methylisoxazol-3-yl)methyleneoxyphenyl]-N4-methyl-2,4-pyrimidinediamine]",IC50,[1]; [2],498 nM
"NS(=O)(=O)c1ccc(Nc2ncc(F)c(Nc3cccc(OCc4cccnc4)c3)n2)cc1 [Compound I-185, N2-(4-Aminosulfonylphenyl)-5-fluoro-N4-[3-(3-pyridinyl)methyleneoxyphenyl]-2,4-pyrimidinediamine]",IC50,[1]; [2],298 nM
"Cc1ccc(Nc2ncc(F)c(Nc3ccc(OCc4n[nH]c(=O)[nH]4)cc3)n2)cc1S(N)(=O)=O [Compound I-202, N2-(3-Aminosulfonyl-4-methylphenyl)-5-fluoro-N4-[4-(2,4-dihydro-3-oxo-1,2,4-triazol-5-yl)methyleneoxyphenyl]-2,4-pyrimidinediamine]",IC50,[1]; [2],3080 nM
